Source: patent US20240350579A1 (priority 2020, published 2024)

Columns and labels:
[1] = Net peptide charge and isoelectric point; type: physicochemical; settings: pH 7
Excerpt: The peptide may be purified. For example, the peptide may be lyophilized. […] Other peptides are within the scope of the disclosure.
Exemplary peptides having a charge of +5 to +9 include […](d)[…], […](d)[…], and […](d)[…]. In other embodiments, the purified peptide may be substantially neutral. […] Net charge may be selected by peptide design. Design of electrostatic charge in the peptide hydrogel may allow control of charge interaction with cell membrane and proteins.

[2] = tested on: P. aeruginosa; assay: Antibacterial assay of PEPXR hydrogels; type: cell-based
Excerpt: (§1) Thus, the peptide hydrogels described herein may generally comprise a high content of positively charged arginine (R) amino acids.
The peptide hydrogel is believed to directly lyse bacterial membranes indiscriminately. […] The mechanism additionally makes it more difficult for the treated microorganisms to gain antibiotic resistance.

[3] = tested on: S. aureus; assay: Antibacterial assay of PEPXR hydrogels; type: cell-based
Excerpt: as §1

[4] = tested on: E. coli; assay: Antibacterial assay of PEPXR hydrogels; type: cell-based
Excerpt: as §1

Row | Substance | net charge [1] | antimicrobial activity (in words) [2] | antimicrobial activity (in words) [3] | antimicrobial activity (in words) [4]
1 | VEVSVSVEV(d)PPTEVSVEVEV | net negative charge |  |  | 
2 | VKVRVRVRVPPTRVRVRVKV [PEP6R] |  | potent antimicrobial activity | potent antimicrobial activity | potent antimicrobial activity
